In general, pIC50 refers to the IC50 on a negative log10 scale, so that one unit is a factor of ten. A higher pIC50 goes with a low IC50.

This note sets out measurements from paper PMC6407917, “Identification of GSK3186899/DDD853651 as a Preclinical Development Candidate for the Treatment of Visceral Leishmaniasis” (Journal of Medicinal Chemistry, 2018).

What all share (experiment): biochemical
Parameters in all cases: species or system HEK293/K-562/placenta mixed human extract; Kinobeads chemoproteomic competition binding, quantified by TMT LC-MS/MS, dose response up to 20 uM

The target in assay [1] is ABL2 (Homo sapiens, UniProt P42684).
Assay [2] addresses CDC42BPG (Homo sapiens, UniProt Q6DT37).
For assay [3], the target named is CDK5 (Homo sapiens, UniProt Q00535).
The target in assay [4] is EPHB6 (Homo sapiens, UniProt O15197).
Assay [5] has as its target ERN1 (Homo sapiens, UniProt O75460).
Assay [6] addresses FER (Homo sapiens, UniProt P16591).
The target of assay [7] is FRK (Homo sapiens, UniProt P42685).
Assay [8] addresses IKBKG (Homo sapiens, UniProt Q9Y6K9).
Assay [9] concerns the target ILK (Homo sapiens, UniProt Q13418).
Assay [10] deals with LRRK2 (Homo sapiens, UniProt Q5S007).
Assay [11] has as its target MAP4K2 (Homo sapiens, UniProt Q12851).
In assay [12] the target is NEK1 (Homo sapiens, UniProt Q96PY6).
Assay [13] addresses PRKCZ (Homo sapiens, UniProt Q05513).
The target of assay [14] is PRKD3 (Homo sapiens, UniProt O94806).
For assay [15], the target named is PRKG1 (Homo sapiens, UniProt Q13976).
Assay [16] addresses RPS6KA1 (Homo sapiens, UniProt Q15418).
Assay [17] has as its target RPS6KA4 (Homo sapiens, UniProt O75676).
Assay [18] has as its target SIK2 (Homo sapiens, UniProt Q9H0K1).
Assay [19] has as its target TEC (Homo sapiens, UniProt P42680).
The target in assay [20] is TESK2 (Homo sapiens, UniProt Q96S53).
Assay [21] has as its target mTOR (Homo sapiens, UniProt P42345).

Each structure is given as a SMILES string. pIC50: −log10 of the molar value.

Sequence of NEK1 (Q96PY6 whole entry): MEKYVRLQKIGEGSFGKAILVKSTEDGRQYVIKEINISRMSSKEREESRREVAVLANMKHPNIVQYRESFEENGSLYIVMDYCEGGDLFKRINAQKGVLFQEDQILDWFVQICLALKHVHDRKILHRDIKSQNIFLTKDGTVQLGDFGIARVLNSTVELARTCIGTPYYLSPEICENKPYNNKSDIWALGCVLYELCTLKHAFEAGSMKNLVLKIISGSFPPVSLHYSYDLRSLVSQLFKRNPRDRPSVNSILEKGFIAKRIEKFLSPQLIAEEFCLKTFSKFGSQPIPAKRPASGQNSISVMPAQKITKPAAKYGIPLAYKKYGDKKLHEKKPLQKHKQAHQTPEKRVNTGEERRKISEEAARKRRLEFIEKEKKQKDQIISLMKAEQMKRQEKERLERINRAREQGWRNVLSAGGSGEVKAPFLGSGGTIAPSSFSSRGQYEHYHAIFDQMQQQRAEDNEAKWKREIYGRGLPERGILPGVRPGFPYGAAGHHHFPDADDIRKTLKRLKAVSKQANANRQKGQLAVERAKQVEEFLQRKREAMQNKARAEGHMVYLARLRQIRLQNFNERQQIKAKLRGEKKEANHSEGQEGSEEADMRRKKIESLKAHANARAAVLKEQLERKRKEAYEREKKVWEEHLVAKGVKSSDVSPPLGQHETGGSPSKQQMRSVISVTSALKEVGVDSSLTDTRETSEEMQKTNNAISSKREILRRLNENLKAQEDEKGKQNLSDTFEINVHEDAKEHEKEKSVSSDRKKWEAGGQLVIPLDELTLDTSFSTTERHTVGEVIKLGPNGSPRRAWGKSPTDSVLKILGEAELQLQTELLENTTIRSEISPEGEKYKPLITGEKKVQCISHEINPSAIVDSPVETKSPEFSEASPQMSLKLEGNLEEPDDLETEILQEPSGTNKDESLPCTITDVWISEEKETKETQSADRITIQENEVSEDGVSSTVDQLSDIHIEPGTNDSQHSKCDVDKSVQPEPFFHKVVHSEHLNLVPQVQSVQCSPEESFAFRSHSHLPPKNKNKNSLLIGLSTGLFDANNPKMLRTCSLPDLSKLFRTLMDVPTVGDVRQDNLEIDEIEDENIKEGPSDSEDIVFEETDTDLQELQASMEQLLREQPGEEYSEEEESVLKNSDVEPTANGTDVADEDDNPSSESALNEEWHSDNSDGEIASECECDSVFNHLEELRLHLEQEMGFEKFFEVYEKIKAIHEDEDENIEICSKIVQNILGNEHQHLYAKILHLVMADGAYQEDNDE
Sequence of TEC (P42680 whole entry): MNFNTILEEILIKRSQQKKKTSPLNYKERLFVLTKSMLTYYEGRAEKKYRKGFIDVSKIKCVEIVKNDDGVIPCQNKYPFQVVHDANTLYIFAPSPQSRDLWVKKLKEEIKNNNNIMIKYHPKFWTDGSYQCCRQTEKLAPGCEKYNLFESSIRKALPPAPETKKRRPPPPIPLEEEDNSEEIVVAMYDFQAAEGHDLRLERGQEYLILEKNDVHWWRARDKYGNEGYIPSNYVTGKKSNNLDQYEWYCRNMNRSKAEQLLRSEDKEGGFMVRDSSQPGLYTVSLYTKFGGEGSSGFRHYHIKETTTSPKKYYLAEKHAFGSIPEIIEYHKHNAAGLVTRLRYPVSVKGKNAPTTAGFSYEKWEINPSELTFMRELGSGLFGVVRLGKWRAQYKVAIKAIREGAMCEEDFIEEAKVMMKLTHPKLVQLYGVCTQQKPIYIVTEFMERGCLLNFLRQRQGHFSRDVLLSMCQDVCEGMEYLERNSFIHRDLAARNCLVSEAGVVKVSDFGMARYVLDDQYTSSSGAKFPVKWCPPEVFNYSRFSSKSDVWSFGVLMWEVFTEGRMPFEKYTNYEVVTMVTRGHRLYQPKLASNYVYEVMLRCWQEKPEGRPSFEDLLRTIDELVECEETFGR
Sequence of PRKD3 (O94806 whole entry): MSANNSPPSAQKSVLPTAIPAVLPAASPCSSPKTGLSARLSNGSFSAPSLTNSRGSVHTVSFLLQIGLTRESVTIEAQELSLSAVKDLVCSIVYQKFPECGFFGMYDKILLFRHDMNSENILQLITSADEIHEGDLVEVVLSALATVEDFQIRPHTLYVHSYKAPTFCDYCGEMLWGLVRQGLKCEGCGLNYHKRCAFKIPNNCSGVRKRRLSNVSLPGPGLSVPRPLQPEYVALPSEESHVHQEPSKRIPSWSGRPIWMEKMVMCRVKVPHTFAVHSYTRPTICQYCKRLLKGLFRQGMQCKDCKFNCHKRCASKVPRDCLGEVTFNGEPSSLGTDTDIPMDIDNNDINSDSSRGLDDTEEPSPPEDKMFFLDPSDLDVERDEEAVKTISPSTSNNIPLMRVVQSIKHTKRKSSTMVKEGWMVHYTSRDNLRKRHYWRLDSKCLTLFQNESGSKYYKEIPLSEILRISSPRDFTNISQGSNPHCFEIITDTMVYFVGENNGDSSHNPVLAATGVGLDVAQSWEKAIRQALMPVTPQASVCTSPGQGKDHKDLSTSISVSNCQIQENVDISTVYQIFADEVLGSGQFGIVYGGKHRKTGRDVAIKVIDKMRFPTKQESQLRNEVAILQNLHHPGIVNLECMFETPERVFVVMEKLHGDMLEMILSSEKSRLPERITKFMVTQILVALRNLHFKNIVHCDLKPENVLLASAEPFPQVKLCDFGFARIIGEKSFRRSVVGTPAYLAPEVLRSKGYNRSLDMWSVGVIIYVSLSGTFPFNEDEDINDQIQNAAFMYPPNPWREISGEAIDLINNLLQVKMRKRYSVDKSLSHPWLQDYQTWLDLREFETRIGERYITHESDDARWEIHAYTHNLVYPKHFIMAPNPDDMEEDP
Sequence of ILK (Q13418 whole entry): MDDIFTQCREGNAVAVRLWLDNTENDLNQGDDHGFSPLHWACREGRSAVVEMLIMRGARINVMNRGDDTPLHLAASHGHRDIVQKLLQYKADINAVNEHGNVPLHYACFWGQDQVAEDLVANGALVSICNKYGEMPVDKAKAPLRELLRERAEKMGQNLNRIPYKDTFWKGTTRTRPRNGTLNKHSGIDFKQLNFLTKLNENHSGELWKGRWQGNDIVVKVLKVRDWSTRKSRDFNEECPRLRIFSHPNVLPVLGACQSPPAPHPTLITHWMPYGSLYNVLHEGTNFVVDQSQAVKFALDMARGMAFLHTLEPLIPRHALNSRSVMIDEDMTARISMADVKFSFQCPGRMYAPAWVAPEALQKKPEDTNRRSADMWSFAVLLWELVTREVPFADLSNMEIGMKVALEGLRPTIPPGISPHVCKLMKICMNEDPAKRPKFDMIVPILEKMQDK
Sequence of CDK5 (Q00535 whole entry): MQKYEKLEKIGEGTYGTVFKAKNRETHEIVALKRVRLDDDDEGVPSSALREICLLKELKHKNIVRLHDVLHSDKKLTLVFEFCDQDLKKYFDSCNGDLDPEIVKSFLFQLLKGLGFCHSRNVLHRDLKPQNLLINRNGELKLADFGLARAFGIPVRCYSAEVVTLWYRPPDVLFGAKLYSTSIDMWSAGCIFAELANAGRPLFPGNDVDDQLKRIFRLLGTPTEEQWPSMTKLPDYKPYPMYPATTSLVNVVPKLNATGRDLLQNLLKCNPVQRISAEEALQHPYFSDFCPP
Sequence of EPHB6 (O15197 whole entry): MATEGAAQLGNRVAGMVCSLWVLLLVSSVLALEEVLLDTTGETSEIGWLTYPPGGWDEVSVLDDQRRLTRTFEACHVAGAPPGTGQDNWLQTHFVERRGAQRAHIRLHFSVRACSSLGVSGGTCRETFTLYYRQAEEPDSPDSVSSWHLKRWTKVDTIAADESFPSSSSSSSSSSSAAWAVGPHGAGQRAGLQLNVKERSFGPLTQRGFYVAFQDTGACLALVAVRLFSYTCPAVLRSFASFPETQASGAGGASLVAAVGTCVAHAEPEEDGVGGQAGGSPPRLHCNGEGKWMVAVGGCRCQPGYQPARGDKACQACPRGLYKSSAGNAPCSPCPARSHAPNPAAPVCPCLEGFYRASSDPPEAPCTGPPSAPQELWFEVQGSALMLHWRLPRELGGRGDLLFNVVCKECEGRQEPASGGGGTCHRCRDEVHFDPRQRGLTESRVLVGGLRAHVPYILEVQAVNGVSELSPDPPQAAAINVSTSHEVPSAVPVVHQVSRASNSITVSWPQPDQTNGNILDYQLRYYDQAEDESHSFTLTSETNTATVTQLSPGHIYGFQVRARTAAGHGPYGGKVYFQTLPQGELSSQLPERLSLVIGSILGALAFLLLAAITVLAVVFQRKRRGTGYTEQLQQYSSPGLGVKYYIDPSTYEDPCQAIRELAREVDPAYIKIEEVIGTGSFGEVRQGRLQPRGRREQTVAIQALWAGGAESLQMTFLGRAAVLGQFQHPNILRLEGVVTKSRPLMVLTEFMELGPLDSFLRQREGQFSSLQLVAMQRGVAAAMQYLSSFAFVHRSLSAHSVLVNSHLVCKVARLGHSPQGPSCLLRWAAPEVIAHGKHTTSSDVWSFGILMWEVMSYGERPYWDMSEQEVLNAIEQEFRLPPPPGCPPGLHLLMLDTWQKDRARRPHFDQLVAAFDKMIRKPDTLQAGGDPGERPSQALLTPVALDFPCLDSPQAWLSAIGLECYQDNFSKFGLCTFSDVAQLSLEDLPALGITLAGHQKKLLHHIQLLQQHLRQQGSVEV
Sequence of FRK (P42685 whole entry): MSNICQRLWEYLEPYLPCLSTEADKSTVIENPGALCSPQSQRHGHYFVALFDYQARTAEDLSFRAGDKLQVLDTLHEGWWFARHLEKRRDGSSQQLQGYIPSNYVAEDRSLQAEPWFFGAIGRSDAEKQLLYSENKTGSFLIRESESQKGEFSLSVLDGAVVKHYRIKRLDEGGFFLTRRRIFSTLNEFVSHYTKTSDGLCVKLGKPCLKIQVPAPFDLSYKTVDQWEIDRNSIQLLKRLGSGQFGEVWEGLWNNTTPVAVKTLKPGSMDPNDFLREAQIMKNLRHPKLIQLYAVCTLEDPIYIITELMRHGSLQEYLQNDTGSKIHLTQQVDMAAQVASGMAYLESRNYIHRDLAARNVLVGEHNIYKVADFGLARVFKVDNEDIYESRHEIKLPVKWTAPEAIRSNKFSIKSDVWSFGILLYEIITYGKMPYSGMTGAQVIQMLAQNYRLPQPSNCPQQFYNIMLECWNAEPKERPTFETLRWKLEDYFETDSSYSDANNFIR

In the case of `COc1ccccc1-c1n[nH]c2nc(N[C@H]3CC[C@H](NS(=O)(=O)CCC(F)(F)F)CC3)nc(OC)c12` [compound 31, 3,3,3-Trifluoro-N-(trans-4-((4-methoxy-3-(2-methoxyphenyl)-1H-pyrazolo[3,4-d]pyrimidin-6-yl)amino)cyclohexyl)propane-1-sulfonamide], the pIC50 in assay [1] is not above 4.70; in [2], not above 4.70; in [3], 5.92; in assay [4], not above 4.70; in assay [5], not above 4.70; in [6], not above 4.70. Also, the negative-log IC50 (pIC50) in assay [7], in assay [8], in assay [9], in assay [10], in [11] and in assay [12] was not above 4.70 throughout. The pIC50 in assay [13], in [14], in assay [15], in assay [16], in assay [17] and in [18] was not above 4.70 each time. The pIC50 in [19], in assay [20] and in [21] was not above 4.70 throughout.
